# Source: the kinase profiling compilation of Christmann-Franck et al. (2016)
# How the values were obtained:
# Assay in all cases: KINOMEscan competition binding
# Settings in all cases: compound 1.0 µM
# MAP4K4 (human) = MAP4K4 (human) (UniProt O95819)
# CSNK1G3 (human) = CSNK1G3 (human) (UniProt Q9Y6M4)
# CDC42BPB (human) = CDC42BPB (human) (UniProt Q9Y5S2)
# [1] = system: ABL1 (human), P00519 [M351T]
# PRKCH (human) = PRKCH (human) (UniProt P24723)
# SRC (human) = SRC (human) (UniProt P12931)
# Chain of SRC (human) (P12931 whole entry, looked up): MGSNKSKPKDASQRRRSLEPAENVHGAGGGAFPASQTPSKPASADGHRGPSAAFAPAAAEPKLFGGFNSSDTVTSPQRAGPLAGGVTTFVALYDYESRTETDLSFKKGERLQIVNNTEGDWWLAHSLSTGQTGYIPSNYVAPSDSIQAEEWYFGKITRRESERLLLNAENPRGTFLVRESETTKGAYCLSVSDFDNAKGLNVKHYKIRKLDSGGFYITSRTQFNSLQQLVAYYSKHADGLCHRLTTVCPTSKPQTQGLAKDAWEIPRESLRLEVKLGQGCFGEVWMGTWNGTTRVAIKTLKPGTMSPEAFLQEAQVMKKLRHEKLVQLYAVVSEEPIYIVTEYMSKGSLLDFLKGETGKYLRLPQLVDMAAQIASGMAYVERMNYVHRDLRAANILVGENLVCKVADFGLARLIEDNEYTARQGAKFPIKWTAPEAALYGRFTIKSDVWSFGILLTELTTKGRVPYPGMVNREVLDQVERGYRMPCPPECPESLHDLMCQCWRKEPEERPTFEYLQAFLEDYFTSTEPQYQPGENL
# STK10 (human) = STK10 (human) (UniProt O94804)
# CSNK2A2 (human) = CSNK2A2 (human) (UniProt P19784)
# Chain of CSNK2A2 (human) (P19784 whole entry, looked up): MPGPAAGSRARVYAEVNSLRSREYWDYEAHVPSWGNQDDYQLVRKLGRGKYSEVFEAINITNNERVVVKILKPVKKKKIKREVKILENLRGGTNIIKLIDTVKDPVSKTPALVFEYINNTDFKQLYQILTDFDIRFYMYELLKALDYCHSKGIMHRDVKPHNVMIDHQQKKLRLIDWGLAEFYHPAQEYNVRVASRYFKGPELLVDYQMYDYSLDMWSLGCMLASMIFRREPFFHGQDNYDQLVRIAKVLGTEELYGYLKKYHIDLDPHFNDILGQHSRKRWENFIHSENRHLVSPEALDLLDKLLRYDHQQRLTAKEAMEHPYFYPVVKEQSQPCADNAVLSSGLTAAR
# SYK (human) = SYK (human) (UniProt P43405)
# PTK6 (human) = PTK6 (human) (UniProt Q13882)
# [2] = system: MET (human), P08581 [Y1235D]
# Chain of MET (human), P08581 [Y1235D] (P08581 whole entry Y1235D, looked up): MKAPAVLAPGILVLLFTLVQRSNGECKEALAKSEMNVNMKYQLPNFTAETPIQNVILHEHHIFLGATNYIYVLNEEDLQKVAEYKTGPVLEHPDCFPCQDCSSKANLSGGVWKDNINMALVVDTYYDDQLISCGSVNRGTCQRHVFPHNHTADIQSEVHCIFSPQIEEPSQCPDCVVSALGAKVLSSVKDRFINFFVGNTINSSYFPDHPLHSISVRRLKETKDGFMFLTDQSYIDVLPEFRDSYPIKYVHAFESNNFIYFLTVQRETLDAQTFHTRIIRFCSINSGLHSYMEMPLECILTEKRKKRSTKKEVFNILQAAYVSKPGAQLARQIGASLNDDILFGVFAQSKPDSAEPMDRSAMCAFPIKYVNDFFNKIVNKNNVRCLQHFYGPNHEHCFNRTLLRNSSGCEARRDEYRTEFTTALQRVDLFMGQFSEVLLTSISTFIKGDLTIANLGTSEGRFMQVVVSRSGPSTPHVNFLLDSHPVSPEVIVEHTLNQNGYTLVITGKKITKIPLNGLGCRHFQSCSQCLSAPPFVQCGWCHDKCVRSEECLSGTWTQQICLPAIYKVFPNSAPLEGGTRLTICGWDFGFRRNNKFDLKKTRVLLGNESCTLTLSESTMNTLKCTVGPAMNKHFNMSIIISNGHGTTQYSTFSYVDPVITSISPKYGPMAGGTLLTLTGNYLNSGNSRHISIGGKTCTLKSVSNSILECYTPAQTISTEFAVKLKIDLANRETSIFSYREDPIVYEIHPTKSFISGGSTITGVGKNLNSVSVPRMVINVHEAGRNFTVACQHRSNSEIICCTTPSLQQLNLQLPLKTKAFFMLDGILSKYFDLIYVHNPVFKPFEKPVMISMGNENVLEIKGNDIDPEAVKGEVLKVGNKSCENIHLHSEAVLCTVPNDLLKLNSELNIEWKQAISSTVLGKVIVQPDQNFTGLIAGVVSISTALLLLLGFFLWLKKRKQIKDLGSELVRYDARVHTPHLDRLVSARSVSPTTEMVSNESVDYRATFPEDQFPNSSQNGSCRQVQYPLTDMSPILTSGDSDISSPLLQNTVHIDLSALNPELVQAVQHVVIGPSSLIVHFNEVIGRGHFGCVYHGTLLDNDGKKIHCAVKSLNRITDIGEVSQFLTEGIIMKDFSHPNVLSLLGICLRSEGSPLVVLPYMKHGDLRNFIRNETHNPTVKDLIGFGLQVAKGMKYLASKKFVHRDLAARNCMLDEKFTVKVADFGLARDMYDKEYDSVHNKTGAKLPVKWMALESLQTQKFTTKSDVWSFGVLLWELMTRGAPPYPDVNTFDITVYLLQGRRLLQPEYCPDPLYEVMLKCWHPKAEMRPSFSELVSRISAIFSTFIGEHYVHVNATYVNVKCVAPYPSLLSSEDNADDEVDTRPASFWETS
# STK33 (human) = STK33 (human) (UniProt Q9BYT3)
# PKN1 (human) = PKN1 (human) (UniProt Q16512)
# FLT4 (human) = FLT4 (human) (UniProt P35916)
# AKT3 (human) = AKT3 (human) (UniProt Q9Y243)
# EGFR (human) = EGFR (human) (UniProt P00533)
# STK16 (human) = STK16 (human) (UniProt O75716)
# [3] = system: EGFR (human), P00533 [G719S]
# EPHB2 (human) = EPHB2 (human) (UniProt P29323)
# CLK3 (human) = CLK3 (human) (UniProt P49761)
# LCK (human) = LCK (human) (UniProt P06239)
# CDK7 (human) = CDK7 (human) (UniProt P50613)
# BMPR1B (human) = BMPR1B (human) (UniProt O00238)
# STK38 (human) = STK38 (human) (UniProt Q15208)
# Chain of STK38 (human) (Q15208 whole entry, looked up): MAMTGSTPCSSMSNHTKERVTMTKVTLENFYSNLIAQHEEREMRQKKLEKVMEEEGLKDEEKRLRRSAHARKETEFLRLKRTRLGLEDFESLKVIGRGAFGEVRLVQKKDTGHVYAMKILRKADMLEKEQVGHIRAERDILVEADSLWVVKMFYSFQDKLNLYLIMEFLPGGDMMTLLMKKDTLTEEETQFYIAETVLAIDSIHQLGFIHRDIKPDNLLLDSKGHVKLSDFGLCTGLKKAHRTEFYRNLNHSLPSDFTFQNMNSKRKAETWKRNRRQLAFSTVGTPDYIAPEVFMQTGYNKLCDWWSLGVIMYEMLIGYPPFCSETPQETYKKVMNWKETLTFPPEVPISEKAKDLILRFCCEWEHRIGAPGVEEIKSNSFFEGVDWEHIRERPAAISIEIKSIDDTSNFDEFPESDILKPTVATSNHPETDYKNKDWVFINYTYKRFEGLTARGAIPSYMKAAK
# [4] = system: ABL1 (human), P00519 [Y253F]
# ANKK1 (human) = ANKK1 (human) (UniProt Q8NFD2)
# ACVR2B (human) = ACVR2B (human) (UniProt Q13705)
# [5] = molecular target: JAK2 JH1 catalytic (human) (UniProt O60674)
# PLK3 (human) = PLK3 (human) (UniProt Q9H4B4)
# PRKACA (human) = PRKACA (human) (UniProt P17612)
# RPS6KA2 KD2 (human) = RPS6KA2 KD2 (human) (UniProt Q15349)
# PAK2 (human) = PAK2 (human) (UniProt Q13177)
# BMPR2 (human) = BMPR2 (human) (UniProt Q13873)
# Chain of BMPR2 (human) (Q13873 whole entry, looked up): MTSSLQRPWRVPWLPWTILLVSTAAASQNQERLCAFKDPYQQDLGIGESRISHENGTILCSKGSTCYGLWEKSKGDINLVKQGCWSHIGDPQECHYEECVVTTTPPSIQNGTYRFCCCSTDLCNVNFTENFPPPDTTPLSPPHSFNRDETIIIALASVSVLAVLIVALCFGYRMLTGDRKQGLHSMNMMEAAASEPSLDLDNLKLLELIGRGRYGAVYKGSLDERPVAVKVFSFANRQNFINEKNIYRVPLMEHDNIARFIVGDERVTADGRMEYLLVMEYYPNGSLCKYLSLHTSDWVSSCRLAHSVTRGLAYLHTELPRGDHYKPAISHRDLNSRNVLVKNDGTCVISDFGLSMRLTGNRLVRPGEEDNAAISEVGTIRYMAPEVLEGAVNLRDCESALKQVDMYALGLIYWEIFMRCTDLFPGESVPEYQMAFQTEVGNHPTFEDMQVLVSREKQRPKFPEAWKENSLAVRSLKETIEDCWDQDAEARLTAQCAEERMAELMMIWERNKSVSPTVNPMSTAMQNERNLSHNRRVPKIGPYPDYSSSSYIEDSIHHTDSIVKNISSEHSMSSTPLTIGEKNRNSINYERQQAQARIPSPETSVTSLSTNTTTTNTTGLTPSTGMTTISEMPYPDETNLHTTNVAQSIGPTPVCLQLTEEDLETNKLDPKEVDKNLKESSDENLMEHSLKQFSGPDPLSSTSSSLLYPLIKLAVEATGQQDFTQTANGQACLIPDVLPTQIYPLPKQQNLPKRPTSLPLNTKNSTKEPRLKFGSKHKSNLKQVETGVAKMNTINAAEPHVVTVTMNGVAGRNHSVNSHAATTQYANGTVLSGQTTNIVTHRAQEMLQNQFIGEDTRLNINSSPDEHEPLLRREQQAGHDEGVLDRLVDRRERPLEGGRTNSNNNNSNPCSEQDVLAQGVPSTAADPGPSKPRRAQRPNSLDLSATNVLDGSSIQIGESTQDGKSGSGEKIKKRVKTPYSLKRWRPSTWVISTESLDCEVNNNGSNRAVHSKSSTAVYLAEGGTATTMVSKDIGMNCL
# CSNK1A1L (human) = CSNK1A1L (human) (UniProt Q8N752)
# STK38L (human) = STK38L (human) (UniProt Q9Y2H1)
# Chain of STK38L (human) (Q9Y2H1 whole entry, looked up): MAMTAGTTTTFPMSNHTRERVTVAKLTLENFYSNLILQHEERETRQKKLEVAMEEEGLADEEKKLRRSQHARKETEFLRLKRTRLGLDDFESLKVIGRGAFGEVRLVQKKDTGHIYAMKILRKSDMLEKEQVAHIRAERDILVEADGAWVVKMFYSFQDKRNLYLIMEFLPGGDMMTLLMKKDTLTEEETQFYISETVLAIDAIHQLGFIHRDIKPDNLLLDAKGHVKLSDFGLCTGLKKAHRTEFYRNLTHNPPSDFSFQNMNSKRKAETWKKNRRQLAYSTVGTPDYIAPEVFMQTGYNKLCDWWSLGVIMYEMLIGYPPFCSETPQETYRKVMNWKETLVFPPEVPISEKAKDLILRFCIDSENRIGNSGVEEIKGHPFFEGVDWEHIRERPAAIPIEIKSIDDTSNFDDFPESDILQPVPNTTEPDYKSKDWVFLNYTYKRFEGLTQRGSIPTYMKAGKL
# [6] = system: EGFR (human), P00533 [G719C]
# [7] = system: FGFR3 (human), P22607 [G697C]
# DCLK3 (human) = DCLK3 (human) (UniProt Q9C098)
# NUAK1 (human) = NUAK1 (human) (UniProt O60285)
# CDK15 (human) = CDK15 (human) (UniProt Q96Q40)
# Chain of PRKCH (human) (P24723 whole entry, looked up): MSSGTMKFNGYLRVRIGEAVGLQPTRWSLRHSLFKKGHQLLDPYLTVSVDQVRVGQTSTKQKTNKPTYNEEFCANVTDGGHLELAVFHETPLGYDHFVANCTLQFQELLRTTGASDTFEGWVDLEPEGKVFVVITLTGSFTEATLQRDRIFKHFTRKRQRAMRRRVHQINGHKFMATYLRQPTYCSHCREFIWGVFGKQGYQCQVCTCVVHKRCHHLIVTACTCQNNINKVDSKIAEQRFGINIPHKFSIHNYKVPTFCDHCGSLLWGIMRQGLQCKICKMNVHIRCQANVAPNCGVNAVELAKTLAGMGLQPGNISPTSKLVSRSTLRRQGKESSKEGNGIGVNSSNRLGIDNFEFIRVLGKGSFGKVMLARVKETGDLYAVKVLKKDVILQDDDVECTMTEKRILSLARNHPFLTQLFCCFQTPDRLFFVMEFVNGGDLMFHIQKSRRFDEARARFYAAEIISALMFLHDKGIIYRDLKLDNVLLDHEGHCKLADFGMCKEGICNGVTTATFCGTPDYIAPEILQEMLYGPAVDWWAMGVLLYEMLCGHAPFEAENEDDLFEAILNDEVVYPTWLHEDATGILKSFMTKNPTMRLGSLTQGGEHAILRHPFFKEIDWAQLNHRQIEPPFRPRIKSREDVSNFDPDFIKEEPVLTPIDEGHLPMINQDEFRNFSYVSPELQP
smiles,measurement,setting,value
Nc1cc(C(F)(F)F)c(-c2cc(N3CCOCC3)nc(N3CCOCC3)n2)cn1,inhibition of binding,MAP4K4 (human),9%
same,inhibition of binding,CSNK1G3 (human),20%
same,inhibition of binding,CDC42BPB (human),0%
same,inhibition of binding,[1],0%
same,inhibition of binding,PRKCH (human),0%
same,inhibition of binding,SRC (human),6%
same,inhibition of binding,STK10 (human),4%
same,inhibition of binding,CSNK2A2 (human),2%
same,inhibition of binding,SYK (human),0%
same,inhibition of binding,PTK6 (human),0%
same,inhibition of binding,[2],0%
same,inhibition of binding,STK33 (human),0%
same,inhibition of binding,PKN1 (human),0%
same,inhibition of binding,FLT4 (human),3%
same,inhibition of binding,AKT3 (human),0%
same,inhibition of binding,EGFR (human),10%
same,inhibition of binding,STK16 (human),0%
same,inhibition of binding,[3],10%
same,inhibition of binding,EPHB2 (human),0%
same,inhibition of binding,CLK3 (human),29%
same,inhibition of binding,LCK (human),0%
same,inhibition of binding,CDK7 (human),0%
same,inhibition of binding,BMPR1B (human),0%
same,inhibition of binding,STK38 (human),1%
same,inhibition of binding,[4],0%
same,inhibition of binding,ANKK1 (human),0%
same,inhibition of binding,ACVR2B (human),0%
same,inhibition of binding,[5],12%
same,inhibition of binding,PLK3 (human),0%
same,inhibition of binding,PRKACA (human),0%
same,inhibition of binding,RPS6KA2 KD2 (human),16%
same,inhibition of binding,PAK2 (human),17%
same,inhibition of binding,BMPR2 (human),0%
same,inhibition of binding,CSNK1A1L (human),0%
same,inhibition of binding,STK38L (human),3%
same,inhibition of binding,[6],4%
same,inhibition of binding,[7],0%
same,inhibition of binding,DCLK3 (human),51%
same,inhibition of binding,NUAK1 (human),42%
same,inhibition of binding,CDK15 (human),0%
